# From patent US7348426B1, “Substituted bicyclic heterocycles, process for their preparation and their use as antiobesity and hypocholesterolemic agents” (Dr. Reddy's Laboraties Limited, priority 1999, dated 2008)
# How the values were obtained:
# [1] = test system: cholesterol fed Syrian Hamsters; details: hamster, in vivo, po, 10 mg/kg/day
# [2] = test system: C57BL/KsJ-db/db mice; assay: Blood sugar and triglyceride lowering in db/db mice (genetic model); type: in vivo
# From the text: Mutation in colonies of laboratory animals and different sensitivities to dietary regimens have made the development of animal models with non-insulin dependent diabetes and hyperlipidemia associated with obesity and insulin resistance possible. Genetic models such as db/db and ob/ob (Diabetes, (1982) 31(1): 1-6) mice and zucker fa/fa rats have been developed by the various laboratories for understanding the pathophysiology of disease and testing the efficacy of new antidiabetic compounds (Diabetes, (1983) 32: 830-838; Annu. Rep. Sankyo Res. Lab. (1994). 46: 1-57). The homozygous animals, C57 BL/KsJ-db/db mice developed by Jackson Laboratory, U.S., are obese, hyperglycemic, hyperinsulinemic and insulin resistant (J. Clin. Invest., (1990) 85: 962-967), whereas heterozygous are lean and normoglycemic. In db/db model, mouse progressively develops insulinopenia with age, a feature commonly observed in late stages of human type II diabetes when blood sugar levels are insufficiently controlled. The state of pancreas and its course vary according to the models. Since this model resembles that of type II diabetes mellitus, the compounds of the present invention were tested for blood sugar and triglycerides lowering activities. Male C57BL/KsJ-db/db mice of 8 to 14 weeks age, having body weight range of 35 to 60 grams, bred at Dr. Reddy's Research Foundation (DRF) animal house, were used in the experiment. The mice were provided with standard feed (National Institute of Nutrition (NIN), Hyderabad, India) and acidified water, ad libitum. The animals having more than 350 mg/dl blood sugar were used for testing. The number of animals in each group was 4. […] The control group received vehicle (dose 10 ml/kg). On 6th day the blood samples were collected one hour after administration of test compounds/vehicle for assessing the biological activity. The random blood sugar and triglyceride levels were measured by collecting blood (100 μl) through orbital sinus, using heparinised capillary in tubes containing EDTA which was centrifuged to obtain plasma. The plasma glucose and triglyceride levels were measured spectrometrically, by glucose oxidase and glycerol-3-PO4 oxidase/peroxidase enzyme (Dr. Reddy's Lab. Diagnostic Division Kits, Hyderabad, India) methods respectively. The blood sugar and triglycerides lowering activities of the test compound was calculated according to the formula. Formulae for Calculation: 1. Percent reduction in Blood sugar/triglycerides/total cholesterol were calculated according to the formula: [formula] OC=Zero day control group value OT=Zero day treated group value TC=Test day control group value TT=Test day treated group value 2. LDL and VLDL cholesterol levels were calculated according to the formula: […]
# [3] = test system: hypercholesterolemic Sprague Dawley rats; details: rat, in vivo, po, 1 mg/kg
# [4] = test system: Swiss albino mice and Guinea pigs; assay: Plasma triglyceride and total cholesterol lowering activity in Swiss albino mice and Guinea pigs; type: in vivo; details: 3 mg/kg orally for 6 days; species of the table not stated (Swiss albino mice / Guinea pigs)
# Description: C) Plasma Triglyceride and Total Cholesterol Lowering Activity in Swiss Albino Mice and Guinea Pigs Male Swiss albino mice (SAM) and male Guinea pigs were obtained from NIN and housed in DRF animal house. All these animals were maintained under 12 hour light and dark cycle at 25±1° C. Animals were given standard laboratory chow (NIN, Hyderabad. India) and water, ad libitum. […] C. Effects of fenofibrate, gemfibrozil and nicotinic acid on plasma lipoprotein levels in normal and hyperlipidemic mice. Atherosclerosis. 1988, 70: 107-114). […] Control mice were treated with vehicle (0.25% Carboxymethylcellulose; dose 10 ml/kg). […] Control animals were treated with vehicle (0.25% Carboxymethylcellulose; dose 5 ml/kg). The blood samples were collected in fed state 1 hour after drug administration on 0 and 6 day of treatment. The blood was collected from the retro-orbital sinus through heparinised capillary in EDTA containing tubes. After centrifugation, plasma sample was separated for triglyceride and total cholesterol (Wieland, O. Methods of Enzymatic analysis. Bergermeyer, H. O., Ed., 1963. 211-214; Trinder, P. Ann. Clin. Biochem. 1969, 6: 24-27). […] Percent reduction in Blood sugar/triglycerides/total cholesterol were calculated according to the formula: [formula] […] LDL and VLDL cholesterol levels were calculated according to the formula: […]
# [5] = 10 mg/kg oral gavage daily for 6 days
# [6] = 3 mg/kg oral gavage daily for 6 days
compound,measurement,setting,value
"CCOC(Cc1ccc(OCCN2CCSc3ccccc32)cc1)C(=O)[O-].[Na+] (racemic) [Example 30, (±) 3-[4-[2(2,3-Dihydro-1,4-benzothiazin-4-yl)ethoxy]phenyl]-2-ethoxypropanoic acid, sodium salt]",Body weight Reduction (%),[1],18%
CCOC(Cc1ccc2cc(OCCN3CCSc4ccccc43)ccc2c1)C(=O)[O-].[Na+] (racemic) [Example 44],Reduction in Blood Glucose Level (%),[2]; [5],47%
same,Triglyceride Lowering (%),[2]; [5],74%
same,HDL (%) ↑ increase,[3],46%
same,LDL (%) ↓ reduction,[3],44%
same,Total Cholesterol (%) ↓ reduction,[3],42%
same,Triglyceride (%) ↓ reduction,[3],50%
same,VLDL (%) ↓ reduction,[3],53%
"CCCCOC(Cc1ccc(OCCN2CCOc3ccccc32)cc1)C(=O)[O-].[Na+] (racemic) [Example 50, (±) 3-[4-[2-(2,3-Dihydro-1,4-benzoxazin-4-yl)ethoxy]phenyl]-2-butoxypropanoic acid, sodium salt]",Reduction in Blood Glucose Level (%),[2]; [6],45%
same,Triglyceride Lowering (%),[2]; [6],23%
"CCOC(Cc1ccc(OCC2CN(Cc3ccccc3)c3ccccc3O2)cc1)C(=O)[O-].[Na+] (racemic) [Example 63, (±) 3-[4-(4-Benzyl-3,4-dihydro-1,4-benzoxazin-2-yl)methoxyphenyl]-2-ethoxy propanoic acid, sodium salt]",Triglyceride Lowering (%),[4],57%
